Here are results for 1 compound from patent publication US10022447B2, “Solid pharmaceutical compositions containing pregabalin” (Warner-Lambert Company LLC, priority 2005, dated 2018).

The data set is described as follows: Clinical studies of regional GI absorption of pregabalin. It counts as in vivo. As to conditions: humans. The text has this:
Once daily dosing of pregabalin, however, presents numerous challenges. Conventional extended release (ER) compositions are problematic for QD dosing because pregabalin is not absorbed uniformly in the gastrointestinal (GI) tract. […] Furthermore, pregabalin is a γ-amino acid which under normal storage conditions may undergo intramolecular cyclization to form a lactam, 4-isobutyl-pyrrolidin-2-one. See, e.g., WO 99/10186 and WO 99/59573, both to A. Aomatsu. Although it is known that the non-active components of the pharmaceutical composition may affect lactam formation, it is difficult to predict which excipients may lead to undesirable lactam formation.

On to `CC(C)C[C@H](CN)CC(=O)O` [pregabalin, (S)-(+)-3-aminomethyl-5-methyl-hexanoic acid], for which the mean absorption window result is on record as “about six hours or less” and the “regional absorption in the GI tract” value is “poorly absorbed beyond the hepatic flexure”.
